Data reported in US6440952B2, “Phosphono-carboxylate compounds for treating amyloidosis” (Queen's University at Kingston, priority 1999, dated 2002).
Structures can show the parent of a compound that is named as a salt.

Legend:
[1] = biological target: T1, Aβ peptide (Homo sapiens, UniProt P05067); assay: in vitro circular dichroism (CD) assay for formation of β-sheet secondary structure; assay type: biochemical; settings: Aβ peptide with test compound in 10 mM Tris-HCl pH 7, incubated 0 or 24 hours at 37° C.
T1 construct: Aβ is a 40 amino acid protein associated with Alzheimer's disease; made in house; host or cells: chemical solid-phase peptide synthesis (no expression host)
T1 sequence (P05067 672-711 limits assumed): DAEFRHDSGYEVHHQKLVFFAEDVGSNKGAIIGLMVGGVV
From the text: It is known that amyloidogenic peptides or proteins which have formed amyloid deposits or plaques have a significant amount of β-sheet secondary structure, while the unaggregated peptide or protein generally has less β-sheet structure. It is believed that the ability of a candidate therapeutic compound to prevent the formation of β-sheet secondary structure in vitro may be correlated with the ability of the compound to inhibit amyloidogenesis in vivo. Accordingly, phosphonate compounds were assayed for ability to prevent the formation of β-sheet secondary structure in assay systems including an in vitro circular dichroism (CD) assay.
Aβ is a 40 amino acid protein associated with Alzheimer's disease. Aβ peptide was prepared and purified as described in Fraser, P. E. et al., Biochemistry 31, 10716 (1992). Briefly, the peptide was synthesized by standard solid-phase techniques and purified by HPLC according to well known procedures.
All CD experiments were performed on a commercially available instrument. The cell is was maintained at 25° C. using a circulating water bath. Computer-averaging of traces was performed to improve signal-to-noise ratios. The solvent signal was subtracted. CD experiments were performed for each test compound according to the following procedure:
A stock solution of purified peptide was made by dissolving the peptide in phosphate-buffered saline (PBS) to a concentration of 2 mg/ml. A test solution was made for each potential therapeutic agent (test compound) as shown below:
The control sample had no test compound, and a total of 5 μl distilled water was added. The test solution was incubated for either 0 or 24 hours at 37° C. before CD measurement. The size minimum in the CD spectrum at 218 nm is believed to be diagnostic of the presence of β-pleated sheet. Comparison of the minimum at 218 nm of a candidate compound, compared to the minimum of a control sample, is believed to be indicative of the ability of the candidate compound to inhibit the formation of β-pleated sheet.

[2] = biological target: T2, amyloid peptide (Homo sapiens, UniProt P05067); assay: amyloid peptide solubility assay (overnight incubation, centrifugation, determination of soluble peptide); assay type: biochemical; settings: compound and amyloid peptide incubated together overnight, preliminary result, buffer composition may have interfered
T2 construct: Aβ is a 40 amino acid protein associated with Alzheimer's disease
T2 sequence (P05067 672-711 limits assumed): as above

[3] = system: cortical/hippocampal neuronal cultures; assay: neurotoxicity in cortical/hippocampal neuronal cultures; assay type: cell-based; settings: concentrations ranging from 10^−7M to 10^−4 M

What does the source list for `O=C(O)P(=O)(O)O` [phosphonoformate trisodium salt, Trisodium phosphonoformate]?
reduction of β-sheet formation as measured by the CD assay (minimum at 218 nm versus control) [1]: significantly and reproducibly reduce the amount of β-sheet formation; effect on amyloid peptide solubility [2]: little effect on amyloid peptide solubility; neurotoxicity [3]: no significant toxicity

How did the “reduction of β-sheet formation as measured by the CD assay (minimum at 218 nm versus control)” value [1] turn out when `O=C(O)CCP(=O)(O)O` [2 carboxyethylphosphonic acid] was run?
The value was “lower ability to prevent β-pleated sheet formation”.

With `O=C(O)CP(=O)(O)O` [Phosphonoacetate] as the compound, how does the “reduction of β-sheet formation as measured by the CD assay (minimum at 218 nm versus control)” value [1] read?
The value was “active”.
